Calls of active or inactive are those of the source. The rule behind the calls is not given here.
Assays:
COLO357 [1] = assay: Antiproliferative activity against human COLO357 cells assessed as reduction in cell growth incubated for 72 hrs by MTT assay; assay type: functional, cell-based; details: COLO357, 72 h
SW-620 [2] = assay: Antiproliferative activity against human SW-620 cells assessed as reduction in cell growth incubated for 72 hrs by MTT assay; assay type: functional, cell-based; details: SW-620, 72 h
HEK293 = assay: Cytotoxicity against human HEK293 cells assessed as reduction in cell growth incubated for 72 hrs by MTT assay; assay type: cell-based; details: HEK293, 72 h
Raji = assay: Antiproliferative activity against human Raji cells assessed as reduction in cell growth incubated for 72 hrs by MTT assay; assay type: functional, cell-based
HaCaT = assay: Cytotoxicity against human HaCat cells assessed as reduction in cell growth incubated for 72 hrs by MTT assay; assay type: cell-based
PANC-1 = assay: Antiproliferative activity against human PANC-1 cells assessed as reduction in cell growth incubated for 72 hrs by MTT assay; assay type: functional, cell-based; details: PANC-1, 72 h
COLO357 [3] = assay: Induction of cell cycle arrest in human COLO357 cells assessed as accumulation at G2/M phase at 5 nM incubated for 48 hrs by RNase/PI staining based flow cytometry analysis (reference value: 13 %); assay type: functional
COLO357 [4] = assay: Induction of cell cycle arrest in human COLO357 cells assessed as accumulation at G1 phase at 5 nM incubated for 48 hrs by RNase/PI staining based flow cytometry analysis (reference value: 72 %); assay type: functional
COLO357 [5] = assay: Induction of cell cycle arrest in human COLO357 cells assessed as accumulation at apoptotic phase at 5 nM incubated for 48 hrs by RNase/PI staining based flow cytometry analysis (reference value: 1.3 %); assay type: functional
SW-620 [6] = assay: Induction of cell cycle arrest in human SW-620 cells assessed as accumulation at G2/M phase at 5 nM incubated for 48 hrs by RNase/PI staining based flow cytometry analysis (reference value: 16 %); assay type: functional
SW-620 [7] = assay: Induction of cell cycle arrest in human SW-620 cells assessed as accumulation at G1 phase at 5 nM incubated for 48 hrs by RNase/PI staining based flow cytometry analysis (reference value: 65 %); assay type: functional
SW-620 [8] = assay: Induction of cell cycle arrest in human SW-620 cells assessed as accumulation at apoptotic phase at 5 nM incubated for 48 hrs by RNase/PI staining based flow cytometry analysis (reference value: 0.8 %); assay type: functional
Tubulin (Homo sapiens) [9] = biological target: T1, Tubulin (Homo sapiens) (UniProt P68371+Q9H4B7+P0DPH7+P68366+Q13509+Q71U36+P04350+Q3ZCM7+P07437+P68363+Q9BQE3+Q6PEY2+Q13885+Q9BVA1+Q9BUF5); assay: Inhibition of tubulin assembly in human COLO357 cells assessed as disruption of mitotic spindle at 5 nM incubated for 24 hrs by Hoechst 33342 staining based confocal microscopic analysis; assay type: cell-based
Tubulin (Homo sapiens) [10] = biological target: T1, Tubulin (Homo sapiens); assay: Inhibition of tubulin assembly in human COLO357 cells assessed as induction of tubulin dissipation at 5 nM incubated for 24 hrs by Hoechst 33342 staining based confocal microscopic analysis; assay type: cell-based
Tubulin (Homo sapiens) [11] = biological target: T1, Tubulin (Homo sapiens); assay: Inhibition of tubulin assembly in human COLO357 cells assessed as induction of chromosome disturbance at 5 nM incubated for 24 hrs by Hoechst 33342 staining based confocal microscopic analysis; assay type: cell-based
Tubulin (Homo sapiens) [12] = biological target: T1, Tubulin (Homo sapiens); assay: Inhibition of tubulin assembly in human SW-620 cells assessed as disruption of mitotic spindle at 5 nM incubated for 24 hrs by Hoechst 33342 staining based confocal microscopic analysis; assay type: cell-based
Tubulin (Homo sapiens) [13] = biological target: T1, Tubulin (Homo sapiens); assay: Inhibition of tubulin assembly in human SW-620 cells assessed as induction of tubulin dissipation at 5 nM incubated for 24 hrs by Hoechst 33342 staining based confocal microscopic analysis; assay type: cell-based
Tubulin (Homo sapiens) [14] = biological target: T1, Tubulin (Homo sapiens); assay: Inhibition of tubulin assembly in human SW-620 cells assessed as induction of chromosome disturbance at 5 nM incubated for 24 hrs by Hoechst 33342 staining based confocal microscopic analysis; assay type: cell-based
Ovis aries = species: Ovis aries; assay: Inhibition of lamb brain tubulin polymerization assessed as reduction in microtubule assembly at 0.5 to 5 uM incubated for 40 mins at […] by spectrophotometric analysis relative to control; assay type: tissue-based; details: dose 0.5-5 µM
[15] = Acute toxicity in C57BL/6 mouse assessed as mouse death at 5 mg/kg, iv measured after 16 hrs; assay type: organism-based; details: in vivo
[16] = Acute toxicity in iv dosed BALB/c mouse assessed as mouse death at 5 mg/kg, iv measured after 16 hrs; assay type: organism-based; details: in vivo
[17] = Acute toxicity in iv dosed CBA mouse assessed as mouse death at 5 mg/kg, iv measured after 16 hrs; assay type: organism-based; details: in vivo
[18] = Acute toxicity in iv dosed A/Sn mouse assessed as mouse death at 5 mg/kg, iv measured after 16 hrs; assay type: organism-based; details: in vivo
[19] = Acute toxicity in iv dosed CD-1 mouse assessed as mouse death at 5 mg/kg, iv measured after 16 hrs; assay type: organism-based; details: in vivo
[20] = Acute toxicity in iv dosed C57BL/6 mouse assessed as lethal dose; assay type: organism-based; details: in vivo
[21] = Acute toxicity in C57BL/6 mouse assessed as mouse death at 10 mg/kg, iv; assay type: organism-based; details: in vivo
HeLa = assay: cells; details: Homo sapiens, 72 h
Description: Antiproliferative activity against human HeLa cells assessed as reduction in cell growth incubated for 72 hrs by MTT assay

[22] = Acute toxicity in mouse assessed as lethal dose measured after 7 days; details: in vivo, time 7 day

Row | Structure (SMILES) | IC50 (COLO357 [1]) [nM] | IC50 (SW-620 [2]) [nM] | IC50 (Raji) [nM] | IC50 (PANC-1) [nM] | IC50 (HeLa) [nM] | IC50 (HEK293) [nM] | IC50 (HaCaT) [nM] | other results
1 | COc1cc2c(c(OC)c1OC)-c1cc(I)c(OC(=O)/C=C/Cl)cc1[C@@H](NC(C)=O)CC2 | 810 | 800 | 825 |  |  | 810 |  | 
2 | C=C1COc2cc3c(cc21)-c1c(cc(OC)c(OC)c1OC)CC[C@@H]3NC(C)=O | 0.04 | 0.02 | 0.03 | 0.08 | 1.7 | 0.08 | 0.3 | Activity (COLO357 [3]): 77%; Activity (COLO357 [4]): 18%; Activity (COLO357 [5]): 2%; Activity (SW-620 [6]): 76%; Activity (SW-620 [7]): 12%; Activity (SW-620 [8]): 4%; inhibition (Tubulin (Homo sapiens) [9]): Active; inhibition (Tubulin (Homo sapiens) [10]): Active; inhibition (Tubulin (Homo sapiens) [11]): Active; inhibition (Tubulin (Homo sapiens) [12]): Active; inhibition (Tubulin (Homo sapiens) [13]): Active; inhibition (Tubulin (Homo sapiens) [14]): Active; inhibition (Ovis aries): 50%; Activity [15]: Non-Toxic; Activity [16]: Non-Toxic; Activity [17]: Non-Toxic; Activity [18]: Non-Toxic; Activity [19]: Non-Toxic; LD50 [20]: 10 mg/kg; Activity [21]: Toxic
3 | COc1cc2c(c(OC)c1OC)-c1ccc(OC)c(=O)cc1[C@@H](NC(C)=O)CC2 [COLCHICINE] |  | 2.4 | 16 | 0.1 | 1.3 |  | 0.3 | Activity (COLO357 [3]): 31%; Activity (COLO357 [4]): 62%; Activity (COLO357 [5]): 2%; Activity (SW-620 [6]): 74%; Activity (SW-620 [7]): 7.4%; Activity (SW-620 [8]): 8.1%; Activity [15]: Toxic; Activity [16]: Toxic; Activity [17]: Toxic; Activity [18]: Toxic; Activity [19]: Toxic; LD50 at 168 h [22]: 1.6 mg/kg
4 | COc1cc2c(c(OC)c1OC)-c1cc3c(cc1[C@@H](NC(C)=O)CC2)OC/C3=C(\C)CCC=C(C)C | 4330 | > 20000 | 800 | 810 | 4250 | 4280 | 4500 | 
5 | C=C1c2cc3c(cc2OC1(F)F)[C@@H](NC(C)=O)CCc1cc(OC)c(OC)c(OC)c1-3 | 0.02 | 0.04 | 0.05 | 0.01 | 0.03 | 0.03 | 0.03 | Activity [15]: Non-Toxic; Activity [16]: Non-Toxic; Activity [17]: Non-Toxic; Activity [18]: Non-Toxic; Activity [19]: Non-Toxic; LD50 [20]: > 10 mg/kg
6 | COc1cc2c(c(OC)c1OC)-c1cc3c(cc1[C@@H](NC(C)=O)CC2)OCC3=C(C)C | 860 | 780 | 420 | 850 | 410 | 400 | 390 | 
7 | COC(=O)/C=C/c1cc2c(cc1O)[C@@H](NC(C)=O)CCc1cc(OC)c(OC)c(OC)c1-2 | > 4000 | > 4000 | > 4000 |  |  | > 4000 |  | 
8 | COc1cc(-c2cc(=O)oc3cc4c(cc23)-c2c(cc(OC)c(OC)c2OC)CC[C@@H]4NC(C)=O)ccc1O | 870 | 160 | 837 |  |  | 4000 |  | 

Second part, led by results:

Row | IC50 (COLO357 [1]) [nM] | IC50 (SW-620 [2]) [nM] | IC50 (Raji) [nM] | IC50 (PANC-1) [nM] | IC50 (HeLa) [nM] | Structure (SMILES) | IC50 (HEK293) [nM] | IC50 (HaCaT) [nM] | other results
9 | 160 | 32 | 160 |  |  | COc1cc2c(c(OC)c1OC)-c1cc(I)c(OC(=O)C=C(C)C)cc1[C@@H](NC(C)=O)CC2 | 805 |  | 
10 | > 20000 | > 20000 | 4600 | > 20000 | 4020 | COc1cc2c(c(OC)c1OC)-c1cc3c(cc1[C@@H](NC(C)=O)CC2)OC/C3=C\c1ccccc1 | > 20000 | 4370 | 
11 | 150 | 30 | 32 |  |  | C=CC(=O)Oc1cc2c(cc1I)-c1c(cc(OC)c(OC)c1OC)CC[C@@H]2NC(C)=O | 158 |  | 
12 | 5 | 6 | 3.8 | 32 | 32 | C/C=C1/COc2cc3c(cc21)-c1c(cc(OC)c(OC)c1OC)CC[C@@H]3NC(C)=O | 3.8 | 14 | 
13 | 800 | 810 | 90 | 80 | 150 | CC/C=C1/COc2cc3c(cc21)-c1c(cc(OC)c(OC)c1OC)CC[C@@H]3NC(C)=O | 166 | 135 | 
14 | 830 | 4100 | 3900 | 820 | 805 | COC(=O)Cc1coc2cc3c(cc12)-c1c(cc(OC)c(OC)c1OC)CC[C@@H]3NC(C)=O | 4420 | 810 | 
15 | 161 | 4 | 139 |  |  | C/C=C/C(=O)Oc1cc2c(cc1I)-c1c(cc(OC)c(OC)c1OC)CC[C@@H]2NC(C)=O | > 4000 |  | 
16 | 1.3 | 1.3 | 1.3 | 2.1 | 0.8 | COc1cc2c(c(OC)c1OC)-c1cc3c(C)coc3cc1[C@@H](NC(C)=O)CC2 | 5 | 0.5 | 
17 | 30 | 6 | 180 |  |  | COc1cc2c(c(OC)c1OC)-c1cc(I)c(OC(=O)/C=C/C(F)(F)F)cc1[C@@H](NC(C)=O)CC2 | 170 |  | 
18 | 160 | 140 | 16 |  |  | COc1cc2c(c(OC)c1OC)-c1cc3c(C)cc(=O)oc3cc1[C@@H](NC(C)=O)CC2 | 32 |  | 

— ChEMBL document CHEMBL4706539 (Eur J Med Chem, 2020)
